From PubChem BioAssay AID1259407 (Chemical Carcinogenesis Research Information System (CCRIS), 2018)
The source made the active and inactive calls. The rule behind the calls is not given here.

Test system: CCRIS mutagenicity, Ames/micronucleus/aberration tests
Test: CCRIS mutagenicity studies

ClCCl
mutagenic call (End Point: IN VITRO CHROMOSOMAL ABERRATIONS, Test System: CHO CELLS, Metabolic Activation: NONE): inactive; negative
mutagenic call (End Point: IN VITRO CHROMOSOMAL ABERRATIONS, Test System: CHO CELLS, Metabolic Activation: RAT, LIVER, S-9, AROCLOR 1254): inactive; negative
mutagenic call (Test System: AMES SALMONELLA TYPHIMURIUM, Strain/Indicator: NG54 (GSH), Metabolic Activation: GLUTATHIONE): active; positive
mutagenic call (Test System: AMES SALMONELLA TYPHIMURIUM, Strain/Indicator: NG54 (GSH), Metabolic Activation: NONE): active; positive
mutagenic call (Test System: AMES SALMONELLA TYPHIMURIUM, Strain/Indicator: NG54 (GSH), Metabolic Activation: RAT, LIVER, S-9, AROCLOR 1254): active; positive
mutagenic call (Test System: AMES SALMONELLA TYPHIMURIUM, Strain/Indicator: NG54 (GSH), Metabolic Activation: RAT, LIVER, S-9, AROCLOR 1254, GLUTATHIONE): active; positive
mutagenic call (Test System: AMES SALMONELLA TYPHIMURIUM, Strain/Indicator: NG-11, Metabolic Activation: GLUTATHIONE, Method: DESICCATOR): active; positive
mutagenic call (Test System: AMES SALMONELLA TYPHIMURIUM, Strain/Indicator: NG-11, Metabolic Activation: NONE, Method: DESICCATOR): active; positive
mutagenic call (Test System: AMES SALMONELLA TYPHIMURIUM, Strain/Indicator: RSJ100, Metabolic Activation: NONE, Method: STANDARD PLATE): active; positive
mutagenic call (Test System: AMES SALMONELLA TYPHIMURIUM, Strain/Indicator: TA97, Metabolic Activation: NONE, Method: STANDARD PLATE): active; positive
mutagenic call (Test System: AMES SALMONELLA TYPHIMURIUM, Strain/Indicator: TA97, Metabolic Activation: RAT, LIVER, S-9, AROCLOR 1254, Method: STANDARD PLATE): active; positive
mutagenic call (Test System: AMES SALMONELLA TYPHIMURIUM, Strain/Indicator: TA98, Metabolic Activation: NONE, Method: GAS EXPOSURE): active; positive
mutagenic call (Test System: AMES SALMONELLA TYPHIMURIUM, Strain/Indicator: TA98, Metabolic Activation: NONE, Method: STANDARD PLATE): inactive; negative
mutagenic call (Test System: AMES SALMONELLA TYPHIMURIUM, Strain/Indicator: TA98, Metabolic Activation: RAT, LIVER, S-9, AROCLOR 1254, Method: STANDARD PLATE): active; positive
mutagenic call (Test System: AMES SALMONELLA TYPHIMURIUM, Strain/Indicator: TA98, Metabolic Activation: RAT, LIVER, S-9, PHENOBARBITAL AND BETA-NAPHTHOFLAVONE, Method: GAS EXPOSURE): active; positive
mutagenic call (Test System: AMES SALMONELLA TYPHIMURIUM, Strain/Indicator: TA98, Metabolic Activation: RAT, LIVER, S-9, PHENOBARBITAL, Method: DESICCATOR): active; positive
mutagenic call (Test System: AMES SALMONELLA TYPHIMURIUM, Strain/Indicator: TA100, Metabolic Activation: GLUTATHIONE): active; positive
mutagenic call (Test System: AMES SALMONELLA TYPHIMURIUM, Strain/Indicator: TA100, Metabolic Activation: GLUTATHIONE, Method: DESICCATOR): active; positive
mutagenic call (Test System: AMES SALMONELLA TYPHIMURIUM, Strain/Indicator: TA100, Metabolic Activation: NONE): active; positive
mutagenic call (Test System: AMES SALMONELLA TYPHIMURIUM, Strain/Indicator: TA100, Metabolic Activation: NONE, Method: DESICCATOR): active; positive
mutagenic call (Test System: AMES SALMONELLA TYPHIMURIUM, Strain/Indicator: TA100, Metabolic Activation: NONE, Method: GAS EXPOSURE): active; positive
mutagenic call (Test System: AMES SALMONELLA TYPHIMURIUM, Strain/Indicator: TA100, Metabolic Activation: RAT, LIVER, MICROSOMES, AROCLOR 1254): active; positive
mutagenic call (Test System: AMES SALMONELLA TYPHIMURIUM, Strain/Indicator: TA100, Metabolic Activation: RAT, LIVER, S-9, AROCLOR 1254): active; positive
mutagenic call (Test System: AMES SALMONELLA TYPHIMURIUM, Strain/Indicator: TA100, Metabolic Activation: RAT, LIVER, S-9, AROCLOR 1254, GLUTATHIONE): active; positive
mutagenic call (Test System: AMES SALMONELLA TYPHIMURIUM, Strain/Indicator: TA100, Metabolic Activation: RAT, LIVER, S-9, AROCLOR 1254, Method: STANDARD PLATE): active; positive
mutagenic call (Test System: AMES SALMONELLA TYPHIMURIUM, Strain/Indicator: TA100, Metabolic Activation: RAT, LIVER, S-9, PHENOBARBITAL AND BETA-NAPHTHOFLAVONE, Method: GAS EXPOSURE): active; positive
mutagenic call (Test System: AMES SALMONELLA TYPHIMURIUM, Strain/Indicator: TA100, Metabolic Activation: RAT, LIVER, S-9, PHENOBARBITAL, Method: DESICCATOR): active; positive
mutagenic call (Test System: AMES SALMONELLA TYPHIMURIUM, Strain/Indicator: TA100, Metabolic Activation: RAT, LIVER, S-100, AROCLOR 1254): active; positive
mutagenic call (Test System: AMES SALMONELLA TYPHIMURIUM, Strain/Indicator: TA102, Metabolic Activation: NONE, Method: STANDARD PLATE): inactive; negative
mutagenic call (Test System: AMES SALMONELLA TYPHIMURIUM, Strain/Indicator: TA104, Metabolic Activation: NONE, Method: STANDARD PLATE): active; positive
mutagenic call (Test System: AMES SALMONELLA TYPHIMURIUM, Strain/Indicator: TA104, Metabolic Activation: RAT, LIVER, S-9, AROCLOR 1254, Method: STANDARD PLATE): inactive; negative
mutagenic call (Test System: AMES SALMONELLA TYPHIMURIUM, Strain/Indicator: TA1535 (GST+), Metabolic Activation: NONE, Method: STANDARD PLATE): active; positive
mutagenic call (Test System: AMES SALMONELLA TYPHIMURIUM, Strain/Indicator: TA1535, Metabolic Activation: NONE, Method: GAS EXPOSURE): active; positive
mutagenic call (Test System: AMES SALMONELLA TYPHIMURIUM, Strain/Indicator: TA1535, Metabolic Activation: NONE, Method: STANDARD PLATE): inactive; negative
mutagenic call (Test System: AMES SALMONELLA TYPHIMURIUM, Strain/Indicator: TA1535, Metabolic Activation: RAT, LIVER, S-9, PHENOBARBITAL AND BETA-NAPHTHOFLAVONE, Method: GAS EXPOSURE): active; positive
mutagenic call (Test System: AMES SALMONELLA TYPHIMURIUM, Strain/Indicator: TA1537, Metabolic Activation: NONE, Method: GAS EXPOSURE): inactive; negative
mutagenic call (Test System: AMES SALMONELLA TYPHIMURIUM, Strain/Indicator: TA1537, Metabolic Activation: RAT, LIVER, S-9, PHENOBARBITAL AND BETA-NAPHTHOFLAVONE, Method: GAS EXPOSURE): inactive; negative
mutagenic call (Test System: AMES SALMONELLA TYPHIMURIUM, Strain/Indicator: TA2638, Metabolic Activation: NONE, Method: STANDARD PLATE): inactive; negative
mutagenic call (Test System: CHINESE HAMSTER OVARY, Strain/Indicator: CHO-K1 (HPRT)/6-THIOGUANINE, Metabolic Activation: MOUSE, LIVER, S-100 (2.5-25%), 5 MILLIMOLAR GLUTATHIONE, Method: SUSPENSION/PLATE): active; positive
mutagenic call (Test System: CHINESE HAMSTER OVARY, Strain/Indicator: CHO-K1 (HPRT)/6-THIOGUANINE, Metabolic Activation: MOUSE, LIVER, S-100 (15-25%), DL-BUTHIONINE-(S,R)-SULFOXIMINE, Method: SUSPENSION): inactive; negative
mutagenic call (Test System: CHINESE HAMSTER OVARY, Strain/Indicator: CHO-K1 (HPRT)/6-THIOGUANINE, Metabolic Activation: MOUSE, LIVER, S-100 (15-35%), 5 MILLIMOLAR GLUTATHIONE, Method: SUSPENSION): active; positive
mutagenic call (Test System: E. COLI, Strain/Indicator: K12(AB1157), Metabolic Activation: MOUSE, LIVER, S-9, Method: SUSPENSION/PLATE): active; positive
mutagenic call (Test System: E. COLI, Strain/Indicator: K12(AB1157), Metabolic Activation: NONE, Method: SUSPENSION/PLATE): inactive; negative
mutagenic call (Test System: E. COLI, Strain/Indicator: K12(AB1157), Metabolic Activation: RAT, LIVER, S-9, Method: SUSPENSION/PLATE): inactive; negative
mutagenic call (Test System: E. COLI, Strain/Indicator: K12(AB1886) UVRA, Metabolic Activation: MOUSE, LIVER, S-9, Method: SUSPENSION/PLATE): inactive; negative
mutagenic call (Test System: E. COLI, Strain/Indicator: K12(AB1886) UVRA, Metabolic Activation: NONE, Method: SUSPENSION/PLATE): inactive; negative
mutagenic call (Test System: E. COLI, Strain/Indicator: K12(AB1886) UVRA, Metabolic Activation: RAT, LIVER, S-9, Method: SUSPENSION/PLATE): inactive; negative
mutagenic call (Test System: E. COLI, Strain/Indicator: WP2 (PKM101), Metabolic Activation: NONE, Method: STANDARD PLATE): inactive; negative
mutagenic call (Test System: E. COLI, Strain/Indicator: WP2 UVRA (PKM101), Metabolic Activation: NONE): active; positive
mutagenic call (Test System: E. COLI, Strain/Indicator: WP2 UVRA (PKM101), Metabolic Activation: NONE, Method: STANDARD PLATE): inactive; negative
mutagenic call (Test System: E. COLI, Strain/Indicator: WP2 UVRA (PKM101), Metabolic Activation: RAT, LIVER, HOMOGENATE, AROCLOR 1254): active; positive
mutagenic call (Test System: E. COLI, Strain/Indicator: WP2 UVRA (PKM101), Metabolic Activation: RAT, LIVER, MICROSOMES, AROCLOR 1254): active; positive
mutagenic call (Test System: E. COLI, Strain/Indicator: WP2 UVRA (PKM101), Metabolic Activation: RAT, LIVER, S-9, AROCLOR 1254): active; positive
mutagenic call (Test System: E. COLI, Strain/Indicator: WP2 UVRA (PKM101), Metabolic Activation: RAT, LIVER, S-100, AROCLOR 1254): active; positive
mutagenic call (Test System: E. COLI, Strain/Indicator: WP2UVRA/PKM101, Metabolic Activation: NONE, Method: GAS EXPOSURE): active; positive
mutagenic call (Test System: E. COLI, Strain/Indicator: WP2UVRA/PKM101, Metabolic Activation: RAT, LIVER, S-9, PHENOBARBITAL AND BETA-NAPHTHOFLAVONE, Method: GAS EXPOSURE): active; positive
mutagenic call (Test System: E. COLI, Strain/Indicator: WP2UVRA, Metabolic Activation: NONE, Method: GAS EXPOSURE): active; positive
mutagenic call (Test System: E. COLI, Strain/Indicator: WP2UVRA, Metabolic Activation: RAT, LIVER, S-9, PHENOBARBITAL AND BETA-NAPHTHOFLAVONE, Method: GAS EXPOSURE): active; positive
mutagenic call (Test System: Mouse lymphoma, Strain/Indicator: L5178Y (tk+/tk-), Metabolic Activation: None, Method: Suspension/plate): inactive; negative
mutagenic call (Test System: Mouse lymphoma, Strain/Indicator: L5178Y (tk+/tk-), Metabolic Activation: Rat, Liver, S-9, Aroclor 1254, Method: Suspension/plate): inactive; negative
